According to US12655116B2, “Substituted isophthalic acid diamides” (Bayer Aktiengesellschaft, priority 2020, dated 2026):

Columns and labels:
ABUTH [1] = assay: Pre-emergence herbicidal action against ABUTH; format: in vivo, Abutilon theophrasti
Procedure, shortened: (§1)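 Visual rating at 3 weeks vs untreated pots; 0–100% scale, 100% = plants died. Treatment: aqueous WP/EC spray onto covering soil, 600–800 l/ha, 0.2% wetter, seeds in sandy loam.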

ALOMY [2] = assay: Pre-emergence herbicidal action against ALOMY; format: in vivo, Alopecurus myosuroides; conditions: pre-emergence
Procedure, shortened: as §1

AMARE [3] = assay: Pre-emergence herbicidal action against AMARE; format: in vivo, Amaranthus retroflexus; conditions: for pest or weed control at 20 g/ha / pest or weed control at 80 g/ha: Amaranthus retroflexus, 504 h, scored visually after 3 weeks vs untreated controls, 100% = plants have died, 0% = like control plants
Procedure, shortened: as §1

AVEFA = assay: Pre-emergence herbicidal action against AVEFA; format: in vivo, Avena fatua; conditions: for pest or weed control at 80 g/ha / pest or weed control at 20 g/ha: Avena fatua, 504 h
Procedure, shortened: as §1

ECHCG [4] = assay: Pre-emergence herbicidal action against ECHCG; format: in vivo, Echinochloa crus-galli; conditions: for pest or weed control at 80 g/ha: Echinochloa crus-galli, 504 h
Procedure, shortened: as §1

LOLRI = assay: Pre-emergence herbicidal action against LOLRI; format: in vivo, Lolium rigidum; conditions: for pest or weed control at 80 g/ha: Lolium rigidum, 504 h
Description: Seeds of monocotyledonous and dicotyledonous weed plants and crop plants are laid out in sandy loam soil in wood-fiber pots and covered with soil. The compounds of the invention, formulated in the form of wettable powders (WP) or as emulsion concentrates (EC), are then applied to the surface of the covering soil in the form of an aqueous suspension or emulsion at a water application rate equivalent to 600 to 800 l/ha, with addition of 0.2% wetting agent. After the treatment, the pots are placed in a greenhouse and kept under good growth conditions for the trial plants. The damage to the test plants is scored visually after a test period of 3 weeks by comparison with untreated controls (herbicidal activity in percent (%): 100% activity=the plants have died, 0% activity=like control plants). […] The tables below illustrate, in an illustrative manner, the post-emergence herbicidal action of the compounds of the invention, the herbicidal activity being stated in percent.

MATIN [5] = assay: Pre-emergence herbicidal action against MATIN; format: in vivo, Matricaria inodora
Procedure, shortened: as §1

PHBPU [6] = assay: Pre-emergence herbicidal action against PHBPU; format: in vivo, Pharbitis purpurea; conditions: dosage 80 g/ha
Procedure, shortened: as §1

VERPE [7] = assay: Pre-emergence herbicidal action against VERPE; format: in vivo, Veronica persica; conditions: dosage 80 g/ha
Procedure, shortened: as §1

DIGSA [8] = assay: Pre-emergence herbicidal action against DIGSA; format: in vivo, Digitaria sanguinalis; conditions: dosage 80 g/ha
Procedure, shortened: as §1

ABUTH [9] = assay: Post-emergence herbicidal action against ABUTH; format: in vivo, Abutilon theophrasti; conditions: visual assessment about 3 weeks after treatment vs untreated controls
Procedure, shortened: (§2)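 Greenhouse pot plants in sandy loam were sprayed at the one-leaf stage, 2 to 3 weeks after sowing, with WP or EC formulations as aqueous suspension or emulsion (600 to 800 l/ha water, 0.2% wetting agent). About 3 weeks later, damage was scored visually against untreated controls as % action (100% = dead, 0% = like control).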

AMARE [10] = assay: Post-emergence herbicidal action against AMARE; format: in vivo, Amaranthus retroflexus; conditions: 20 g/ha, visual assessment about 3 weeks after treatment, 100% = plants have died, 0% = like control plants; for pest or weed control at 20 g/ha: Amaranthus retroflexus, 504 h
Procedure, shortened: as §2

ECHCG [11] = assay: Post-emergence herbicidal action against ECHCG; format: in vivo, Echinochloa crus-galli
Procedure, shortened: as §2

MATIN [12] = assay: Post-emergence herbicidal action against MATIN; format: in vivo, Matricaria inodora
Procedure, shortened: as §2

PHBPU [13] = assay: Post-emergence herbicidal action against PHBPU; format: in vivo, Pharbitis purpurea
Procedure, shortened: as §2

DIGSA [14] = assay: Post-emergence herbicidal action against DIGSA; format: in vivo, Digitaria sanguinalis; conditions: 20 g/ha
Procedure, shortened: as §2

SETVI [15] = assay: Pre-emergence herbicidal action against SETVI; format: in vivo, Setaria viridis; conditions: Setaria viridis, 504 h; for pest or weed control at 80 g/ha: dosage 80 g/ha
Procedure, shortened: as §1

VIOTR [16] = assay: Pre-emergence herbicidal action against VIOTR; format: in vivo, Viola tricolor; conditions: Viola tricolor, 504 h; for pest or weed control at 80 g/ha: dosage 80 g/ha
Procedure, shortened: as §1

ALOMY [17] = assay: Post-emergence herbicidal action against ALOMY; format: in vivo, Alopecurus myosuroides; conditions: Alopecurus myosuroides, 504 h, visual assessment about 3 weeks after treatment vs untreated controls; for pest or weed control at 5 g/ha: dosage 5 g/ha; for pest or weed control at 20 g/ha: dosage 20 g/ha
Procedure, shortened: as §2

SETVI [18] = assay: Post-emergence herbicidal action against SETVI; format: in vivo, Setaria viridis; conditions: Setaria viridis, 504 h; for pest or weed control at 20 g/ha: dosage 20 g/ha
Procedure, shortened: as §2

VERPE [19] = assay: Post-emergence herbicidal action against VERPE; format: in vivo, Veronica persica; conditions: Veronica persica, 504 h, 20 g/ha
Procedure, shortened: as §2

VIOTR [20] = assay: Post-emergence herbicidal action against VIOTR; format: in vivo, Viola tricolor; conditions: Viola tricolor, 504 h
Procedure, shortened: as §2

[21] = 80 g/ha, scored visually after 3 weeks vs untreated controls (100% = plants have died, 0% = like control plants)
[22] = Abutilon theophrasti, 504 h, 80 g/ha, scored visually after 3 weeks vs untreated controls (100% = plants have died, 0% = like control plants)
[23] = Alopecurus myosuroides, 504 h, 80 g/ha, scored visually after 3 weeks vs untreated controls (100% = plants have died, 0% = like control plants)
[24] = pre-emergence, 20 g/ha, scored visually after 3 weeks, 100% = plants have died, 0% = like control plants
[25] = Tripleurospermum inodorum, 504 h, dosage 20 g/ha
[26] = Tripleurospermum inodorum, 504 h, dosage 80 g/ha
[27] = Abutilon theophrasti, 504 h, dosage 20 g/ha
[28] = Echinochloa crus-galli, 504 h, dosage 20 g/ha
[29] = Ipomoea purpurea, 504 h, dosage 20 g/ha

SMILES: Cn1nnnc1NC(=O)c1ccc(C(F)F)c(C(=O)NC2CCC2)c1Cl [Example 1-164]
- Pre-emergence action against ABUTH (herbicidal activity) (ABUTH [1]; [21]): 80%
- Pre-emergence action against ABUTH (herbicidal activity in percent) (ABUTH [1]; dosage 20 g/ha, scored visually after 3 weeks vs untreated controls, 100% = plants have died, 0% = like control plants): 80%
- Pre-emergence action against ALOMY (herbicidal activity) (ALOMY [2]; [21]): 100%
- Pre-emergence action against AMARE in % (AMARE [3]; [21]): 100%
- Pre-emergence action against AVEFA (AVEFA; 20 g/ha, scored visually after 3 weeks, 100% = plants have died, 0% = like control plants): 100%
- Pre-emergence action against AVEFA in % (AVEFA; 80 g/ha, pre-emergence): 100%
- Pre-emergence action against ECHCG in % (ECHCG [4]; 20 g/ha): 100%
- Pre-emergence action against ECHCG in % (ECHCG [4]; 80 g/ha): 100%
- Pre-emergence action against LOLRI in % (LOLRI; 20 g/ha): 100%
- Pre-emergence action against LOLRI in % (LOLRI; 80 g/ha): 100%
- Pre-emergence action against MATIN in % (MATIN [5]; dosage 80 g/ha): 100%
- Pre-emergence action against PHBPU in % (PHBPU [6]): 100%
- Pre-emergence action against VERPE in % (VERPE [7]): 90%
- Pre-emergence action against DIGSA in % (DIGSA [8]): 80%
- Post-emergence action against ABUTH in % (ABUTH [9]; dosage 5 g/ha): 80%
- Post-emergence action against ABUTH in % (ABUTH [9]; dosage 20 g/ha): 80%
- Post-emergence action at 20 g/ha against AMARE in % (AMARE [10]): 90%
- Post-emergence action against ECHCG in % (ECHCG [11]; dosage 5 g/ha): 80%
- Post-emergence action against ECHCG in % (ECHCG [11]; dosage 20 g/ha): 90%
- Post-emergence action against MATIN in % (MATIN [12]; dosage 5 g/ha): 80%
- Post-emergence action against MATIN in % (MATIN [12]; dosage 20 g/ha): 80%
- Post-emergence action against PHBPU in % (PHBPU [13]; dosage 5 g/ha): 90%
- Post-emergence action against PHBPU in % (PHBPU [13]; dosage 20 g/ha): 90%
- Post-emergence action against DIGSA (DIGSA [14]): 80%

SMILES: CNC(=O)c1c(I)ccc(C(=O)Nc2nnnn2C)c1Cl [Example 1-195]
- pest or weed control at 80 g/ha (ABUTH [1]; [22]): 100%
- pest or weed control at 20 g/ha (ABUTH [1]; Abutilon theophrasti, 504 h, dosage 20 g/ha, scored visually after 3 weeks vs untreated controls, 100% = plants have died, 0% = like control plants, read-out: Pre-emergence action against ABUTH (herbicidal activity in percent)): 90%
- pest or weed control at 80 g/ha (ALOMY [2]; [23]): 90%
- pest or weed control at 20 g/ha (ALOMY [2]; Alopecurus myosuroides, 504 h, 20 g/ha, scored visually after 3 weeks, 100% = plants have died, 0% = like control plants): 90%
- pest or weed control at 20 g/ha (AMARE [3]): 90%
- pest or weed control at 80 g/ha (AMARE [3]; 80 g/ha): 100%
- pest or weed control at 80 g/ha (AVEFA; 80 g/ha, pre-emergence): 90%
- pest or weed control at 20 g/ha (AVEFA; [24]): 80%
- pest or weed control at 80 g/ha (ECHCG [4]; 80 g/ha): 100%
- pest or weed control at 80 g/ha (LOLRI; 80 g/ha): 80%
- pest or weed control at 20 g/ha (MATIN [5]; [25]): 90%
- pest or weed control at 80 g/ha (MATIN [5]; [26]): 100%
- pest or weed control at 20 g/ha (SETVI [15]; dosage 20 g/ha): 90%
- pest or weed control at 80 g/ha (SETVI [15]): 100%
- pest or weed control at 20 g/ha (VIOTR [16]; dosage 20 g/ha): 100%
- pest or weed control at 80 g/ha (VIOTR [16]): 100%
- pest or weed control at 20 g/ha (ABUTH [9]; [27]): 80%
- pest or weed control at 5 g/ha (ALOMY [17]): 90%
- pest or weed control at 20 g/ha (ALOMY [17]): 100%
- pest or weed control at 20 g/ha (AMARE [10]): 100%
- pest or weed control at 20 g/ha (ECHCG [11]; [28]): 80%
- pest or weed control at 20 g/ha (MATIN [12]; [25]): 80%
- pest or weed control at 5 g/ha (PHBPU [13]; Ipomoea purpurea, 504 h, dosage 5 g/ha): 80%
- pest or weed control at 20 g/ha (PHBPU [13]; [29]): 80%
- pest or weed control at 5 g/ha (SETVI [18]; dosage 5 g/ha): 100%
- pest or weed control at 20 g/ha (SETVI [18]): 100%
- pest or weed control at 20 g/ha (VERPE [19]): 80%
- pest or weed control at 5 g/ha (VIOTR [20]; 5 g/ha): 90%
- pest or weed control at 20 g/ha (VIOTR [20]): 100%

SMILES: CCNC(=O)c1c(Br)ccc(C(=O)Nc2nnnn2C)c1Br [Example 1-343]
- pest or weed control at 80 g/ha (ABUTH [1]; [22]): 100%
- pest or weed control at 80 g/ha (ALOMY [2]; [23]): 100%
- pest or weed control at 20 g/ha (AMARE [3]): 100%
- pest or weed control at 80 g/ha (AMARE [3]; 80 g/ha): 100%
- pest or weed control at 80 g/ha (AVEFA; 80 g/ha, pre-emergence): 80%
- pest or weed control at 20 g/ha (AVEFA; [24]): 80%
- pest or weed control at 80 g/ha (ECHCG [4]; 80 g/ha): 90%
- pest or weed control at 80 g/ha (LOLRI; 80 g/ha): 80%
- pest or weed control at 80 g/ha (MATIN [5]; [26]): 100%
- pest or weed control at 80 g/ha (SETVI [15]): 100%
- pest or weed control at 80 g/ha (VERPE [7]; Veronica persica, 504 h): 80%
- pest or weed control at 80 g/ha (VIOTR [16]): 100%
- pest or weed control at 5 g/ha (ABUTH [9]; Abutilon theophrasti, 504 h, dosage 5 g/ha): 90%
- pest or weed control at 20 g/ha (ABUTH [9]; [27]): 90%
- pest or weed control at 5 g/ha (ALOMY [17]): 90%
- pest or weed control at 20 g/ha (ALOMY [17]): 100%
- pest or weed control at 20 g/ha (AMARE [10]): 100%
- pest or weed control at 5 g/ha (ECHCG [11]; Echinochloa crus-galli, 504 h, dosage 5 g/ha): 80%
- pest or weed control at 20 g/ha (ECHCG [11]; [28]): 90%
- pest or weed control at 20 g/ha (PHBPU [13]; [29]): 80%
- pest or weed control at 20 g/ha (SETVI [18]): 100%
- pest or weed control at 20 g/ha (VERPE [19]): 80%
- pest or weed control at 20 g/ha (VIOTR [20]): 80%
